These results are taken from patent publication US20200296959A1, “DISINFECTION AND/OR STERILIZATION OF AGRICULTURAL CROPS” (priority 2019, published 2020).

The subject of the test is Bacillus atrophaeus spore strips. Nature of the test: Microbial decontamination barrel: sterilization of Steritest biological indicator spore strips. As for the experimental part:
Barrel Setup: All cycles were performed using a 48.8 gallon steel barrel with an airtight lid sealed with a rubber gasket.
Barrels were fitted with an SEC Sensor to monitor EO concentration throughout the cycle
The unit utilizes AN 7916 Anprolene gas release ampoules, which contain approximately 17.6 g of EO. The number of ampoules can be adjusted according to load weight.
Barrels were fitted with an observation chamber containing a chemical integrator, referred to a dosimeter. This allows sterilization progress to be monitored in real time with no disruption to the cycle.
An external recirculating abator cartridge was attached to the lid of the barrel to neutralize EO when the cycle is complete.
Humidichips, a Madgetech Datalogger, and a Steritest biological indicator including a Dosimeter and a Bacillus atrophaeus spore strip, were placed in the bottom of the barrel. An AN 7916 EO 17.6 g ampule was activated then placed in the bottom of the barrel.
Further, paper represents a reasonable proxy for agricultural materials such as hemp and marijuana, as all of these materials are all cellulosic materials.
In this example, the barrel was loaded with 150 lbs of paper. Humidichips, a Madgetech Datalogger, and a Steritest were placed in the middle of the load. The Barrel was filled to the top with cloth materials (which are also cellulosic materials). […]

Turning to `C1CO1` [ethylene oxide], the “ethylene oxide levels sufficient to kill biological surrogates (Bacillus atrophaeus) included with each load” value (microbial decontamination barrel, each load) is reported as “sufficient to kill 10^6 biological surrogates”. Besides, the “sterilization of Bacillus atrophaeus spore strips contained in the Steritest” value (seven 2-4 day cycles, 48.8 gallon barrel, 17.6 g EO ampoule, room temperature (around 20° C.), empty and paper loads) is reported as “successfully sterilized”.
